{"source": "ChEMBL document CHEMBL4184333", "about": "“Expanding Benzoxazole-Based Inosine 5'-Monophosphate Dehydrogenase (IMPDH) Inhibitor Structure-Activity As Potential Antituberculosis Agents” (J Med Chem, 2018)"}
{"system": "Mycobacterium tuberculosis", "experiment": "Antitubercular activity against Mycobacterium tuberculosis SRMV2.6 harboring IMPDH2 Y487C mutant using 7H9/ADC/Tween medium after 1 week in absence of guanine by Alamar blue assay", "format": "functional", "units": {"MIC": "µM"}}
{"smiles": "COc1ccc(OC(C)C(=O)Nc2ccc3oc(-c4ccncc4)nc3c2)cc1", "note": "(centres undefined)", "MIC": ">100"}
{"smiles": "C[C@H](Nc1cccc(F)c1F)C(=O)Nc1ccc2oc(-c3ccc(C#N)cc3)nc2c1", "MIC": ">100"}
{"smiles": "CCOC(=O)COc1ccc(-c2nc3cc(NC(=O)[C@H](C)Oc4cccc(Cl)c4Cl)ccc3o2)cc1", "MIC": 3.1}
{"smiles": "C[C@H](Oc1cccc(Cl)c1Cl)C(=O)Nc1ccc2oc(-c3ccc(C(=O)O)cc3)nc2c1", "MIC": 25}
